From patent US7935853B2, “Micronized composition of a 2,4-disubstituted phenol derivative” (priority 2008, dated 2011)

Test system: arthritis induced by injection of type II collagen in the mouse
Assay: Model of arthritis induced by type II collagen in mice (CIA), hind paw plethysmometry
Format: in vivo
Conditions: for Total hind paw volume (sum of both hind paws) / Oedema (difference in paw volume from basal values on day 21) in both hind paws: group mean n=10
Experimental: The aim of the study was to determine the anti-inflammatory activity of the test item in a model of arthritis induced by injection of type II collagen in the mouse (CIA) and to compare the activity of two different formulations: micronized and non-micronized.
Induction of arthritis was carried out by an initial exposure to type II bovine collagen by a subcutaneous injection at the base of the tail (induction phase).
After a recovery time of 21 days, animals received a booster injection and approximately 4-5 weeks after the first injection there was an immune response with arthritis appearing in the extremities in the majority of the cases.
Four experimental groups were used in the study with 10 animals in each group:
Group D: Positive control: FCA+vehicle B.I.D.
Group E: Micronized Test Item (Micro) 10 mg/kg B.I.D.
Group F: Non-Micronized test item 10 mg/kg B.I.D.
Group G: Reference item: Indomethacin 1 mg/kg Q.D.
The dose administered to groups E and F was 10 mg/kg.
The dose administered to group G was 1 mg/kg.
The doses of the test and reference items were expressed as mg/Kg of compound administered to each animal.
The test and reference items were administered in a solution of methylcellulose (0.25%: vehicle).
The positive control group received the vehicle (methylcellulose 0.25%).
The test and reference items, as well as the vehicle were administered orally at a dosing volume of 5 mls/kg.
The route of administration used was oral by use of an intragastric cannula.
On the day of start of the study each mouse was injected subcutaneously at the base of the tail with a first dose of 0.1 ml of an emulsion of bovine type II collagen (1 mg/mL) in Freund's Complete Adjuvant. Afterwards, on day 21 after this first injection, a second booster injection of type II collagen was administered to all animals. In this occasion the collagen suspension was done using Incomplete Freund's Adjuvant.
Coinciding with the second booster injection on day 21 treatment with the test or reference items was started to the corresponding animals.
Treatment with the test or reference items was carried out for 31 consecutive days (days 21-51 of the experimental period). Additionally, a recovery period was included at the end of the treatment period from day 52 to day 65 in order to evaluate the duration of any anti-inflammatory effect observed once dosing has been terminated.
The animals' hind paw volume was measured by plethysmometry one day before the 1st injection of collagen, again one day before the second (booster) collagen injection (basal values) and then daily after administration of test/reference item until the end of the study. During the recovery period at the end of the study, hind paw volume was measured three times per week.
Additionally the data was also represented graphically, depicting changes in total hind paw volume, as well as oedema (differences from basal (day 21) values).

[1] = day 22, oral treatment days 21-51, listed as Group F
[2] = day 23, oral treatment days 21-51, listed as Group F
[3] = day 26, oral treatment days 21-51, listed as Group F
[4] = day 27, oral treatment days 21-51, listed as Group F
[5] = day 29, oral treatment days 21-51, listed as Group F
[6] = day 30, oral treatment days 21-51, listed as Group F
[7] = day 33, oral treatment days 21-51, listed as Group F
[8] = day 34, oral treatment days 21-51, listed as Group F
[9] = day 35, oral treatment days 21-51, listed as Group F
[10] = day 36, oral treatment days 21-51, listed as Group F
[11] = day 37, oral treatment days 21-51, listed as Group F
[12] = day 41, oral treatment days 21-51, listed as Group F
[13] = day 42, oral treatment days 21-51, listed as Group F
[14] = day 43, oral treatment days 21-51, listed as Group F
[15] = day 44, oral treatment days 21-51, listed as Group F
[16] = day 47, oral treatment days 21-51, listed as Group F
[17] = day 48, oral treatment days 21-51, listed as Group F
[18] = day 49, oral treatment days 21-51, listed as Group F
[19] = day 50, oral treatment days 21-51, listed as Group F
[20] = day 51, oral treatment days 21-51, listed as Group F
[21] = day 54, recovery period after treatment days 21-51, listed as Group F
[22] = day 56, recovery period after treatment days 21-51, listed as Group F
[23] = day 58, recovery period after treatment days 21-51, listed as Group F
[24] = day 61, recovery period after treatment days 21-51, listed as Group F
[25] = day 63, recovery period after treatment days 21-51, listed as Group F
[26] = day 65, recovery period after treatment days 21-51, listed as Group F

## Oc1c(I)cc(I)cc1I [Non-Micronized, 2,4,6-triiodophenol]
Day 0, before collagen and treatment, listed as Group F
  Total hind paw volume (sum of both hind paws): 0.189
Day 20, basal, before treatment, listed as Group F
  Total hind paw volume (sum of both hind paws): 0.243
[1]
  Oedema (difference in paw volume from basal values on day 21) in both hind paws: −0.003
  Total hind paw volume (sum of both hind paws): 0.240
[2]
  Oedema (difference in paw volume from basal values on day 21) in both hind paws: 0.007
  Total hind paw volume (sum of both hind paws): 0.250
[3]
  Oedema (difference in paw volume from basal values on day 21) in both hind paws: 0.010
  Total hind paw volume (sum of both hind paws): 0.253
[4]
  Oedema (difference in paw volume from basal values on day 21) in both hind paws: −0.001
  Total hind paw volume (sum of both hind paws): 0.242
[5]
  Oedema (difference in paw volume from basal values on day 21) in both hind paws: 0.006
  Total hind paw volume (sum of both hind paws): 0.248
[6]
  Oedema (difference in paw volume from basal values on day 21) in both hind paws: 0.016
  Total hind paw volume (sum of both hind paws): 0.259
[7]
  Oedema (difference in paw volume from basal values on day 21) in both hind paws: 0.007
  Total hind paw volume (sum of both hind paws): 0.250
[8]
  Oedema (difference in paw volume from basal values on day 21) in both hind paws: 0.011
  Total hind paw volume (sum of both hind paws): 0.254
[9]
  Oedema (difference in paw volume from basal values on day 21) in both hind paws: 0.013
  Total hind paw volume (sum of both hind paws): 0.255
[10]
  Oedema (difference in paw volume from basal values on day 21) in both hind paws: 0.011
  Total hind paw volume (sum of both hind paws): 0.254
[11]
  Oedema (difference in paw volume from basal values on day 21) in both hind paws: 0.000
  Total hind paw volume (sum of both hind paws): 0.243
Day 40, oral treatment days 21-51
  Total hind paw volume (sum of both hind paws): 0.273
Day 40, oral treatment days 21-51, listed as Group F
  Oedema (difference in paw volume from basal values on day 21) in both hind paws: 0.030
[12]
  Oedema (difference in paw volume from basal values on day 21) in both hind paws: 0.028
  Total hind paw volume (sum of both hind paws): 0.271
[13]
  Oedema (difference in paw volume from basal values on day 21) in both hind paws: 0.021
  Total hind paw volume (sum of both hind paws): 0.264
[14]
  Oedema (difference in paw volume from basal values on day 21) in both hind paws: 0.013
  Total hind paw volume (sum of both hind paws): 0.255
[15]
  Oedema (difference in paw volume from basal values on day 21) in both hind paws: 0.006
  Total hind paw volume (sum of both hind paws): 0.248
[16]
  Oedema (difference in paw volume from basal values on day 21) in both hind paws: 0.031
  Total hind paw volume (sum of both hind paws): 0.273
[17]
  Oedema (difference in paw volume from basal values on day 21) in both hind paws: 0.034
  Total hind paw volume (sum of both hind paws): 0.277
[18]
  Oedema (difference in paw volume from basal values on day 21) in both hind paws: 0.039
  Total hind paw volume (sum of both hind paws): 0.281
[19]
  Oedema (difference in paw volume from basal values on day 21) in both hind paws: 0.046
  Total hind paw volume (sum of both hind paws): 0.289
[20]
  Oedema (difference in paw volume from basal values on day 21) in both hind paws: 0.046
  Total hind paw volume (sum of both hind paws): 0.288
[21]
  Oedema (difference in paw volume from basal values on day 21) in both hind paws: 0.065
  Total hind paw volume (sum of both hind paws): 0.307
[22]
  Oedema (difference in paw volume from basal values on day 21) in both hind paws: 0.062
  Total hind paw volume (sum of both hind paws): 0.304
[23]
  Oedema (difference in paw volume from basal values on day 21) in both hind paws: 0.070
  Total hind paw volume (sum of both hind paws): 0.312
[24]
  Oedema (difference in paw volume from basal values on day 21) in both hind paws: 0.063
  Total hind paw volume (sum of both hind paws): 0.31
[25]
  Oedema (difference in paw volume from basal values on day 21) in both hind paws: 0.073
  Total hind paw volume (sum of both hind paws): 0.32
[26]
  Oedema (difference in paw volume from basal values on day 21) in both hind paws: 0.072
  Total hind paw volume (sum of both hind paws): 0.31
Test item 10 mg/kg BID, Indomethacin 1 mg/kg Q.D, oral
  effect on hind paw oedema (in words): did not result in any significant inhibition
